Results on five compounds are retold here after patent publication US9556192B2, “Functionalized 9-bromo-camptothecin derivatives” (NERVIANO MEDICAL SCIENCES S.R.L., priority 2012, dated 2017).

Counter-ions that a name gives are not always drawn. Like-named read-outs stand apart in the source and are kept apart here. Some results are limits rather than exact numbers.

In data set [1] the test system is A2780 human ovarian cancer cells. In words: In vitro cell proliferation assay (CellTiter-Glo). The data set is classed as cell-based. As to conditions: 72 h. As for the experimental part: In Vitro Cell Proliferation Assay
A2780 human ovarian and MCF7 human breast cancer cells (1250 cells/well) were seeded in white 384 well-plates in complete medium (RPMI1640 or EMEM plus 10% Fetal bovine serum) and treated with compounds dissolved in 0.1% DMSO, 24 h after seeding. The cells were incubated at 37° C. and 5% CO2 and after 72 h the plates were processed using CellTiter-Glo assay (Promega) following the manufacturers instructions.
CellTiter-Glo is a homogenous method based on the quantification of the ATP present, an indicator of metabolically active cells. ATP is quantified using a system based on luciferase and D-luciferin resulting into light generation. The luminescent signal is proportional to the number of cells present in culture.
Briefly, 25 μL/well of reagent solution are added to each well and after 5 min shaking microplates are read by a luminometer. The luminescent signal is proportional to the number of cells present in culture.

The next data set addresses cathepsin B (Homo sapiens, UniProt P07858). In words: Release of a drug moiety from conjugate in presence of cathepsin B. Type of data set: biochemical. As to conditions: 0.2 units cathepsin B, sodium acetate buffer pH 5.5, 1 mM Cys, 2 h at 40° C. The protocol:
As an example, that is not intended to limit the scope of the invention, the release of a compound of formula (I) from the conjugate was performed in presence of cathepsin as reported below.
(§1) The conjugate A1 was incubated with 0.2 units of cathepsin B in sodium acetate buffer pH 5.5 and 1 mM Cys for 2 h at 40° C. Then pH was adjusted to 7.4 by addition of Tris-HCl buffer and maintained at room temperature for 1 h.

A short description of data set [2]: Elimination of self-immolative group at pH 7.4 (HPLC/MS). Type of data set: physicochemical. As to conditions: pH 7.4 (Tris-HCl buffer), room temperature, 1 h. As for the experimental part:
as §1

Where [3] appears, read: read-out: IC50 value in A2780 human ovarian cancer cells.

As to `CC[C@@]1(OC(=O)CN)C(=O)OCc2c1cc1n(c2=O)Cc2cc3c(Br)cccc3nc2-1` [Comp. 1, (4S)-10-bromo-4-ethyl-3,14-dioxo-3,4,12,14-tetrahydro-1H-pyrano[3′,4′6,7]indolizino[1,2-b]quinolin-4-yl glycinate hydrochloride], the IC50 in data set [1] (read-out: A2780 (IC50 nM)) is 0.97 nM; in data set [1] (setting [3]) it was below 10 nM.

Take `CC[C@@]1(O)C(=O)OCc2c1cc1n(c2=O)Cc2cc3c(Br)cccc3nc2-1` [9-bromo-camptothecin]: the IC50 in data set [1] (read-out: A2780 (IC50 nM)) was 1.62 nM.

For `CC[C@@]1(OC(=O)CC2(CNC(=O)[C@@H](CCCNC(N)=O)NC(=O)[C@@H](NC(=O)CCCCCN3C(=O)CC(N[C@H](C=O)CS)C3=O)C(C)C)CCCCC2)C(=O)OCc2c1cc1n(c2=O)Cc2cc3c(Br)cccc3nc2-1` (stereo partly shown) [conjugate A1], the “Cleavage of the Z peptidic linker of the conjugate with release of Comp. 11” value at cathepsin B is given as “Partial disappearance”.

Take `CC[C@@]1(OC(=O)CC2(CN)CCCCC2)C(=O)OCc2c1cc1n(c2=O)Cc2cc3c(Br)cccc3nc2-1.Cl` [Comp. 11]: the “Release of 9-bromo-camptothecin by elimination of the self-immolative group W” value in data set [2] was “elimination of the self-immolative group W”.

Turning to `CC[C@@]1(OC(=O)CNC(=O)[C@H](CC(C)C)NC(=O)[C@@H](N)Cc2ccccc2)C(=O)OCc2c1cc1n(c2=O)Cc2cc3c(Br)cccc3nc2-1` [Comp. 2, (4S)-10-bromo-4-ethyl-3,14-dioxo-3,4,12,14-tetrahydro-1H-pyrano[3′,4′:6,7]indolizino[1,2-b]quinolin-4-yl L -phenylalanyl-L-leucylglycinate], the results for the IC50 in data set [1] (read-out: A2780 (IC50 nM)) and in data set [1] (setting [3]) were 1.56 nM and below 10 nM, respectively.
